Measurements as given in patent US20230084978A1, “OPTIMIZATION OF PEPTIDE-MELANIN BINDING” (ASSITANCE PUBLIQUE - HÔPITAUX DE PARIS, priority 2020, published 2023).
Non-standard residues stand in square brackets, D forms with d. No end group written: not given here. Hyp = O=C(O)[C@@H]1C[C@@H](O)CN1

Experiments:
[1] = Binding of peptides to synthetic melanin (Tricine-SDS-PAGE analysis); details: for Binding of peptides on synthetic melanin, Mel + peptide 2 hours at pH 7.4: filtered (10 kDa) preformed melanin; for Binding of peptides on synthetic melanin, Mel + peptide 2 hours at pH 7.4 / Binding of peptides on synthetic melanin, Mel + peptide 18 hours at pH 7.4 / Binding of peptides on synthetic melanin, Mel + peptide 18 hours at pH 8.5 / Binding of peptides on synthetic melanin, Mel + peptide 10 minutes / Binding of peptides on synthetic melanin, Mel + peptide 2 hours / Binding of peptides on synthetic melanin, Mel + peptide 18 hours: peptide/L-Dopa 1/4; for Binding of peptides on synthetic melanin, Mel + peptide 18 hours at pH 7.4 / Binding of peptides on synthetic melanin, Mel + peptide 18 hours at pH 8.5: filtered preformed melanin; for Binding of peptides on synthetic melanin, Mel + peptide: L-Dopa polymerized first, peptide added (1/4); for Binding of peptides on synthetic melanin, Peptide-Mel: peptide/L-Dopa 1/4 mixed, then 2 hours at pH 8.5 and 60° C.; for Binding of peptides on synthetic melanin, Mel + peptide 10 minutes / Binding of peptides on synthetic melanin, Mel + peptide 2 hours / Binding of peptides on synthetic melanin, Mel + peptide 18 hours: filtered preformed melanin at pH 7.5; for peptide binding to melanin: binding-promoting amino-acid at NH2-terminal vs COOH terminal end
Description: The binding of the peptide to the melanin can be verified by Tricine-SDS-PAGE analysis as described in Carpentier; 2017 (op. cit.). Briefly, samples (peptide-Mel or peptide alone) are loaded on acrylamide gels. Following electrophoresis, the gels are stained with Coomassie Brilliant Blue R-250, allowing the quantification of the free peptide in the gel. The binding of peptides to melanin can be expressed as the ratio: [amount of unbound peptide in samples Peptide-Mel/amount of peptides in control samples containing peptides alone.
Peptides were mixed with L-Dopa (weight ratio peptide/L-Dopa=1/4 and 1/6 for gp100 and EphA2, respectively) then incubated for 2 hours at pH 8.5 and 60° C. under agitation to ensure oxygenation of the solution to generate nanoparticles of melanin-bound peptides (Peptide-Mel). Alternatively, L-Dopa alone (0.8 mg/ml) was polymerized into melanin for 2 h at pH 8.5 and 60° C. under agitation, before the peptides (weight ratio peptide/L-Dopa=1/4 and 1/6 for gp100 and EphA2, respectively) were added to the solution (Mel+peptide). Tricine-SDS-PAGE analysis was performed as described in Carpentier; 2017 (op. cit.). Briefly, samples (peptide-Mel or peptide alone) were loaded on acrylamide gels. Following electrophoresis, the gels were stained with Coomassie Brilliant Blue R-250 and imaged with the ChemiDoc XRS+ system (Bio-Rad Laboratory), allowing the quantification of the free peptide in the gel. The binding of peptides to melanin was expressed as the ratio: [amount of unbound peptide in samples Peptide-Mel/amount of peptides in control samples containing peptides alone]
First column (Peptide-Mel): L-Dopa (0.8 mg/ml) was mixed with peptides (weight ratio peptide/L-Dopa=1/4) then incubated for 2 hours at pH 8.5 and 60° C. to generate nanoparticles of melanin-bound peptides. Alternatively (second column; Mel+peptide), L-Dopa alone (0.8 mg/ml) was first polymerized into melanin for 2 h at pH 8.5 and 60° C. under vigorous agitation, before the peptides (weight ratio peptide/L-Dopa=1/4) were added to the solution and incubated for 2 hours at room temperature. In both cases, the percentage of peptides that bound to melanin was then quantified with SPS-page analysis, as described in table 1. (ND=not done)
(§1) L-Dopa (0.8 mg/ml) underwent an oxidative polymerization at pH 8.5 in aerobic conditions for 2 hours at 60° C. The reaction mixture was then filtered on a 10 kDa filter, and the retentate containing the synthetic melanin was resuspended at pH 7.5 in phosphate buffer. Peptides were then added (at the weight ratio peptide/L-Dopa=1/4) and the mixture was incubated for various periods of time and or pH. The percentage of peptides that bound to melanin was then quantified with SPS-page analysis, as described in table 1. (ND=not done).
as §1, with “8.5 and 60° C.” for “8.5 in aerobic conditions”, “2 hours.” for “2 hours at 60° C.”, “of time. Binding” for “of time and or pH. The percentage”, “of the” for “of”, “peptides” for “peptides that bound to melanin”, “(ND=not done)” for “(ND=not done).”

[2] = tested on: humanized female HLADRB1* 0101/HLA-A*0201 (HHD DR1) mice; experiment: CTL response (IFNg-SFCs of re-stimulated splenocytes) after subcutaneous immunization in humanized mice; assay type: in vivo; details: 10 μg/mouse subcutaneous, day 8, more than 10 spots is positive
Method: CTL response was evaluated after subcutaneous immunizations in humanized female HLADRB1* 0101/HLA-A*0201 (HHD DR1) mice.
L-Dopa (0.8 mg/ml) underwent an oxidative polymerization at pH 8.5 in aerobic conditions for 2 hours at 60° C. The reaction mixture was then filtered on a 10 kDa filter, and the retentate containing the synthetic melanin was resuspended at pH 7.5 in phosphate buffer.
Peptides (A10, SEQ ID NO: 29; A8, SEQ ID NO: 34; A30, SEQ ID NO: 31, 10 μg/mouse) were then added (at the weight ratio peptide/L-Dopa=1/4).
Mixtures (either Mel+peptides or Peptides alone) were rapidly (<1 hour) used for subcutaneous immunizations in mice. Phosphorothioate oligonucleotide CpG-28 (5′-[…], SEQ ID NO: 21) was added to vaccine formulations (10 μg/mouse) just before the immunizations. Mice were sacrificed on day 8 and the CTL response was performed as described in Carpentier; 2017. Briefly, splenocytes were re-stimulated in vitro with the corresponding peptide (non-conjugated to melanin) and the numbers of IFNg-SFCs (Spot forming cells) were measured and expressed as Mean+/−S.E.M. (n=4 to 8 mice/group). More than 10 spots is considered as a positive immune response

Binding of peptides on synthetic melanin, Mel + peptide 2 hours at pH 7.4 [1] [%]	Binding of peptides on synthetic melanin, Mel + peptide 18 hours at pH 7.4 [1] [%]	Binding of peptides on synthetic melanin, Mel + peptide 18 hours at pH 8.5 [1] [%]	Binding of peptides on synthetic melanin, Mel + peptide ([1]; 2 hours at room temperature) [%]	Binding of peptides on synthetic melanin, Peptide-Mel [1] [%]	Substance	also measured
0	31	62	–	–	Acetyl-K SIYRYYGL (Ac-KSIYRYYGL) [SEQ ID NO: 7]	–
53	46	42	53	74	Acetyl-R C SIYRYYGL (Ac-RCSIYRYYGL) [SEQ ID NO: 8]	–
0	–	–	0	5	Acetyl-R F SIYRYYGL (Ac-RFSIYRYYGL) [SEQ ID NO: 13]	–
–	–	–	–	60	Acetyl-R H SIYRYYGL (Ac-RHSIYRYYGL) [SEQ ID NO: 9]	–
0	13	32	–	–	Acetyl-R M SIYRYYGL (Ac-RMSIYRYYGL) [SEQ ID NO: 11]	–
0	12	–	–	–	Acetyl-R S SIYRYYGL (Ac-RSSIYRYYGL) [SEQ ID NO: 10]	–
17	2	0	17	0	Acetyl-R SIYRYYGL (Ac-RSIYRYYGL) [SEQ ID NO: 4]	melanin binding (in words), Peptide-Mel ([1]; peptide mixed with L-Dopa, 2 hours at pH 8.5): No binding
0	–	–	0	10	Acetyl-R T SIYRYYGL (Ac-RTSIYRYYGL) [SEQ ID NO: 12]	–
0	–	–	0	56	Acetyl-R W SIYRYYGL (Ac-RWSIYRYYGL) [SEQ ID NO: 14]	–
–	–	–	–	–	C KVPRNQDWL (CKVPRNQDWL; Modified gp100 peptide) [SEQ ID NO: 17]	Binding of peptides on synthetic melanin, Mel + peptide 10 minutes [1]: 9%; Binding of peptides on synthetic melanin, Mel + peptide 2 hours [1]: 54%; Binding of peptides on synthetic melanin, Mel + peptide 18 hours [1]: 99%; binding to melanin (in words), cysteine in oxidized or reduced state ([1]; preformed filtered melanin, 2 hours at room temperature): Binding was observed in both cases
–	–	–	–	–	CKSVWSKLQSIGIRQH (Modified UCP2 Peptide) [A10]	numbers of IFNg-SFCs (Spot forming cells), Mean ([2]; Mel + pept + CpG-28): 150; numbers of IFNg-SFCs (Spot forming cells), Mean ([2]; Pept + CpG-28): 18
–	–	–	–	–	CKVFAGIPTV (Modified PTPRZ1 Epitope) [A30]	numbers of IFNg-SFCs (Spot forming cells), Mean ([2]; Mel + pept + CpG-28): 182
–	–	–	–	–	CKVFAGIPTVASDTV (Modified PTPRZ1 Epitope) [A8]	numbers of IFNg-SFCs (Spot forming cells), Mean ([2]; Mel + pept + CpG-28): 29; numbers of IFNg-SFCs (Spot forming cells), Mean ([2]; Pept + CpG-28): 5
–	–	–	–	–	HydroxP KVPRNQDWL ([Hyp]KVPRNQDWL) [SEQ ID NO: 16]	Binding of peptides on synthetic melanin, Mel + peptide 10 minutes [1]: 12%; Binding of peptides on synthetic melanin, Mel + peptide 2 hours [1]: 35%; Binding of peptides on synthetic melanin, Mel + peptide 18 hours [1]: 100%
23	39	74	23	95	HydroxyP SIYRYYGL ([Hyp]SIYRYYGL) [SEQ ID NO: 6]	–
–	–	–	–	–	M KVPRNQDWL (MKVPRNQDWL; Modified gp100 peptide) [SEQ ID NO: 18]	Binding of peptides on synthetic melanin, Mel + peptide 10 minutes [1]: 7%; Binding of peptides on synthetic melanin, Mel + peptide 2 hours [1]: 43%; Binding of peptides on synthetic melanin, Mel + peptide 18 hours [1]: 100%
–	–	–	–	–	P KVPRNQDWL (PKVPRNQDWL; Modified gp100 peptide) [SEQ ID NO: 15]	Binding of peptides on synthetic melanin, Mel + peptide 10 minutes [1]: 13%; Binding of peptides on synthetic melanin, Mel + peptide 2 hours [1]: 11%; Binding of peptides on synthetic melanin, Mel + peptide 18 hours [1]: 100%
7	22	41	7	87	P SIYRYYGL (PSIYRYYGL; Modified test peptide) [SEQ ID NO: 5]	–
0	28	31	0	90	SIYRYYGL [SEQ ID NO: 3, reference compound]	–
–	–	–	–	–	VYDFFVWL-X [SEQ ID NO: 20]	peptide binding to melanin [1]: 55%
–	–	–	–	–	X-VYDFFVWL [SEQ ID NO: 19]	peptide binding to melanin [1]: 51%
